Results: patent US9956291B2, “Nanoformulation and methods of use of thyroid receptor beta1 agonists for liver targeting” (priority 2012, dated 2018)

Key:
high fat diet mice = test: Nutritionally-induced hypercholesterolemia model (high fat diet mice); assay type: in vivo
Description: Mice were fed a high fat diet (TD.06414, Harlan Research Diet, Inc., Indianapolis, Ind.) that provides […] from fat sources increased total cholesterol. […] Male C57BL/6 mice were fed either a commercial chow diet (Prolab RMH 3000, PMI feeds, St. Louis, Mo.) to serve as a negative control, or a high fat diet (TD.06414). Plasma was collected once weekly to monitor the level of LDL-C, total cholesterol, HDL-C, and triglyceride. […] One group was treated with vehicle, and the other groups are treated with TRβ1 agonist compounds versus its Nano-targeted ones at different doses.
High-fat diet (HFD)-induced dyslipidemia in mice. FIG. 12 depicts dose-ranging of Chitosan-PLGA NP-encapsulated GC-1 and conjugated with Glycyrrhetinic acid versus un-encapsulated GC-1 for lowering total cholesterol in HFD mice, in accordance with embodiments of the present invention.

[1] = cited from earlier work
LDLR [2] = test: Test for LDLR up-regulation in transfected HEK-293 cells; assay type: cell-based, human
Description: (§1) The expression vector of human LDLR was constructed under the control of the cytomegalovirus promoter-enhancer (pCMV-LDLR). These constructs were used to transiently transfect mammalian cells, and cells were subjected to SDS-PAGE and immunoblot analysis using an LDLR antibody. […] Using this assay, compounds were tested for their ability to reduce the degradation of the LDLR. HEK-293 cells grown in 96-well plates overnight and transfected with LDLR were used. Compounds dissolved in DMSO or vehicle were added to the culture media, and incubated for 24-48 hours. The cells were then lysed. Both cell lysate and supernatant are subjected to quantitation using the above immunoassay. Compounds that increase the up-regulation of LDLR were selected. A similar assay was implemented using the HepG2 cells, since these cells express the LDLR endogenously.

[3] = in vivo; cited from earlier work
LDLR [4] = test: Test for LDLR up-regulation in HepG2 cells (endogenous LDLR); assay type: cell-based, human
Description: as §1

cartilage = details: dogs, up to 12 months; cited from earlier work
[5] = moderately overweight and hypercholesterolemic subjects, two weeks

Cc1cc(OCC(=O)O)cc(C)c1Cc1ccc(O)c(C(C)C)c1 [GC-1]
dose of maximum effect on total cholesterol (toward normal regular diet levels) (high fat diet mice; IP daily, week 1 and week 2): 1.0 mg/kg | lowering of total cholesterol (high fat diet mice; IP daily, week 1 and week 2, dose-ranging): dose-dependent lowering of total cholesterol | lowering serum cholesterol and triglyceride ([1]; Phase I clinical trial): effective in lowering serum cholesterol and triglyceride | LDLR up-regulation (LDLR [2]): None of the TR beta agonists including GC-1, KB-2115 or their nanoformulations resulted in any significant changes | serum cholesterol and triglyceride [3]: lower serum cholesterol and triglyceride | LDLR up-regulation (LDLR [4]): None of the TR beta agonists including GC-1, KB-2115 or their nanoformulations resulted in any significant changes

CC(C)c1cc(Oc2c(Br)cc(NC(=O)CC(=O)O)cc2Br)ccc1O [KB-2115]
reduction of serum total cholesterol (high fat diet mice; 0.1 mg/Kg daily for 6 days): 60-80% | effects on the heart [1, 5]: without detectable effects on the heart | serum total and LDL cholesterol, apoB levels [1, 5]: reduced | LDLR up-regulation (LDLR [2]): None of the TR beta agonists including GC-1, KB-2115 or their nanoformulations resulted in any significant changes | serum cholesterol and triglyceride [3]: lower serum cholesterol and triglyceride | cartilage damage (cartilage): Cartilage damage was observed | LDLR up-regulation (LDLR [4]): None of the TR beta agonists including GC-1, KB-2115 or their nanoformulations resulted in any significant changes
